Test results: patent publication US20200113852A1, “METHODS OF PATIENT SELECTION AND TREATING TRXR- OR PRDX-OVEREXPRESSED CANCERS” (TRIACT THERAPEUTICS, INC., priority 2017, published 2020)
Like-named read-outs stand apart in the source and are kept apart here.

Key:
[1] = target: T1, TrxR in HCT116 cells (Homo sapiens, UniProt Q16881); test: Endogenous TrxR activity in cell lysates (DTNB reduction assay); format: cell-based
T1 sequence (Q16881 1-649): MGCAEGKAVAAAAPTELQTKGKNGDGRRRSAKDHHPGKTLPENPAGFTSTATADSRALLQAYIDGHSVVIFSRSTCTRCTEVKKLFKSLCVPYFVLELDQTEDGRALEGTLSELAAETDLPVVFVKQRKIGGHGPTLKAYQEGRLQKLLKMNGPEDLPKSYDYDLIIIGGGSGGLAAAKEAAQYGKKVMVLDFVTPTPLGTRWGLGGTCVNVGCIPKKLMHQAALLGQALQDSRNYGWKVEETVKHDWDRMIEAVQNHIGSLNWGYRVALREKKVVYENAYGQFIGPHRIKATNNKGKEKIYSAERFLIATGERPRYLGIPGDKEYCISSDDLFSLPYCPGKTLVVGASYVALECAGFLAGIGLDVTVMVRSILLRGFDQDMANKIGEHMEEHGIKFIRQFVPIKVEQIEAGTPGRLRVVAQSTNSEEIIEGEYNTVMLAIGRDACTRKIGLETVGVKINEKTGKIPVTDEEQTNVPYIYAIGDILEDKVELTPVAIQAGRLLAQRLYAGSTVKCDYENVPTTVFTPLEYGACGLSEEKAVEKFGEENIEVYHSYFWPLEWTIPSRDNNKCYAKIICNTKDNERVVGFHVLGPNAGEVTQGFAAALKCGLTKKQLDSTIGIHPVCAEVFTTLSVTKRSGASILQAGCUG

[2] = target: T2, Prdx1 (Homo sapiens, UniProt Q06830); test: Monomeric avidin pull-down and Prdx1 immunoprecipitation, identification of Prdx1 modification; format: cell-based; conditions: GSH-depleted HCT116, 100 μM, 4 h
T2 construct: endogenous in cells; host or cells: HCT116 (GSH-depleted with BSO)
Experimental: After separation by SDS-PAGE under reducing conditions and PageBlue® protein staining (Thermo scientific), bands of interest were excised, reduced with DTT, alkylated with iodoacetamide and in-gel digested with trypsin (Promega). Peptides were extracted with acetonitrile 50% in 0.2% formic acid and analyzed by Nano LC-MS/MS after partial evaporation in a speed-vac concentrator. LC-MS/MS experiments were performed on an NanoAcquity UPLC (Waters) coupled to a hybrid LTQ Orbitrap Velos mass spectrometer (Thermo Fisher Scientific) equipped with a nanoelectrospray source. Tryptic digests were loaded onto a nanoAcquity UPLC Trap column (Symmetry C18, 5 μm, 180 μm×20 mm, Waters) and washed with 0.2% formic acid at 20 μL/min for 5 min. Peptides were then eluted on a C18 reverse-phase nanoAcquity column (BEH130 C18, 1.7 μm, 75 μm×250 mm, Waters) with a linear gradient of 7-30% solvent B (H2O/CH3CN/HCOOH, 10:90:0.2, by vol.) for 85 min, 30-90% solvent B for 10 min, and 90% solvent B for 5 min, at a flow rate of 250 nL/min.
The mass spectrometer was operated in the data-dependent mode to automatically switch between MS and MS/MS acquisition. […] The exact parent mass is the ^12C isotope ion mass of the most intense isotopic pattern detected on the high resolution Orbitrap MS parallel scan and included in the MS/MS selection window. […]

[3] = target: T3, recombinant human GAPDH (Homo sapiens, UniProt P04406); test: In vitro modification of GAPDH by Iniparib and I-NOBA; format: binding
T3 construct: purchased Acris
Experimental: For biochemical analysis, recombinant human GAPDH (Acris) was first reduced by a 15,000-fold excess of DTT at 56° C. for 30 min, the reducing agent being removed thereafter by chloroform/methanol precipitation. […] Afterwards the samples were submitted or not to another reducing step with 25 mM DTT (56° C., 30 min), and after removal of DTT by chloroform/methanol precipitation, biotinylation of free cysteine sulfhydryl groups of GAPDH was performed with HPDP-biotin (N-[6-(Biotinamido)hexyl]-3′-(2′-pyridyldithio)propionamide) at […] for 2 h at 20° C.
Sample mixtures were then reduced or not with 25 mM DTT (56° C., 30 min). Intact molecular weights were measured by mass spectrometry. Liquid chromatography-electrospray ionization mass spectrometry (LC/MS) was carried out using LTQ-Orbitrap Elite mass spectrometer (Thermo Fisher Scientific) coupled to a Famos Autosampler and an Ultimate Pump (LC-Packing, Dionex). Reverse phase chromatography was performed with a binary buffer system consisting of 0.2% formic acid (buffer A) and 80% acetonitrile in 0.2% formic acid (buffer B). After dilution to 1 pmole/μl in 0.2% formic acid, 1 μl of samples were loaded on a Poros 1 R/H column (75 μm×15 cm, Dionex). […] Mass spectra (m/z 500-2,000) were acquired in the positive ITMS mode with 5 μscans accumulation, a target value of 30,000 and a maximum injection time of 100 ms. The acquired raw files were converted in MassLynx format (Waters) using an home-made program and then were deconvoluted using MaxEnt software (Waters).

[4] = HCT-116, read-out: inhibition of TrxR reductase activity, 100 μM, 4 h, BSO-pretreated HCT116
[5] = HCT-116, read-out: inhibition of TrxR reductase activity, 100 μM, first 2 h of incubation, BSO-pretreated HCT116

T3 sequence (P04406 whole entry): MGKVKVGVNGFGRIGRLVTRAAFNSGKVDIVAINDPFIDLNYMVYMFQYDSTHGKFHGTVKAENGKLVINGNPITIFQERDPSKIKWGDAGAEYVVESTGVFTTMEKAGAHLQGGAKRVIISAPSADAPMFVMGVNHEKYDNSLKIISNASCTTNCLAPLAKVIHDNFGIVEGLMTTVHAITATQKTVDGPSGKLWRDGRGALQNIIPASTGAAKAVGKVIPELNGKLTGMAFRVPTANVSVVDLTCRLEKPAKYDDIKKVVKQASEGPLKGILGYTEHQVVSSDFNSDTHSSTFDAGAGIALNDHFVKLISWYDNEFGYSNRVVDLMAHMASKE
T2 sequence (Q06830 2-199 limits assumed): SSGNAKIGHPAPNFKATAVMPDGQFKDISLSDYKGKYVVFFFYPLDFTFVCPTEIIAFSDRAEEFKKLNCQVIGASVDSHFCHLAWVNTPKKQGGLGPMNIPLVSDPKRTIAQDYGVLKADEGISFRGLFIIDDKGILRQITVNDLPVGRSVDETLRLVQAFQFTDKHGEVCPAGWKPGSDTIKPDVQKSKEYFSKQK

SMILES	inhibition at 100 µM [1, 4]	inhibition at 100 µM [1, 5]	Prdx1 modification after in-cell bio activation [2]	covalent modification of GAPDH (MS analysis) ([3]; purified GAPDH incubated with compound)	blocking of free thiol groups in GAPDH ([3]; purified GAPDH, biotin-HPDP labeling, streptavidin-HRP blot)	modification of free thiol groups in purified GAPDH [3]
NC(=O)c1ccc(I)c([N+](=O)[O-])c1 [Iniparib, 4-iodo-3-nitrobenzamide]	~100%	> 90%	modifies Cys173	not able to covalently modify the protein	ineffective	
O=C(CCCC[C@@H]1SC[C@@H]2NC(=O)N[C@@H]21)NCCNC(=O)c1ccc(I)c([N+](=O)[O-])c1 [Iniparib-biotin, 4-iodo-3-nitro-N-(2-(5-((3 aS,4S,6aR)-2-oxohexahydro-1H-thieno[3,4-d]imidazol-4-yl)pentanamido)ethyl)benzamide]	~100%	> 90%	modifies Cys173			did not modify free thiol groups
